# Entries after “also recorded” stand apart in the source; their conditions may differ. Where two headings read alike, the source gives them in different places.
# What was measured:
# P. aeruginosa (PAO1) = experiment: MIC, microdilution, P. aeruginosa PAO1; type: cell-based, Pseudomonas aeruginosa
# [1] = test system: M. tuberculosis (MC26020); experiment: microbe, parasite or virus in culture; type: cell-based, Mycobacterium tuberculosis; settings: for MIC: Mycobacterium tuberculosis, read-out: MIC M. tuberculosis (MC26020)
# E. faecalis (ATCC 19433) = experiment: MIC, E. faecalis ATCC 19433; type: cell-based, Enterococcus faecalis
# E. coli (W3110) = experiment: MIC, microdilution, E. coli W3110; type: cell-based, Escherichia coli
# [2] = test system: S. aureus (ATCC 43300) MRSA; experiment: MIC, microdilution, MRSA ATCC 43300; type: cell-based, Staphylococcus aureus; settings: norfloxacin-resistant strain
# [3] = test system: norfloxacin-resistant clinical isolate of E. coli; experiment: MIC, microdilution, norfloxacin-resistant clinical isolate of E. coli; type: cell-based, Escherichia coli; settings: read-out: MIC E. coli (norfloxacin-resistant strain)
# S. aureus (CCUG1800T) = experiment: MIC, microdilution, S. aureus CCUG1800T; type: cell-based, Staphylococcus aureus; settings: read-out: MIC S. aureus (CCUG1800T)
# [4] = test system: K. pneumoniae (ATCC 10031); experiment: MIC, K. pneumoniae ATCC 10031; type: cell-based, Klebsiella pneumoniae
# E. coli [5] = experiment: microbe, parasite or virus in culture; settings: Escherichia coli, read-out: MICC (MIC of the test compound alone)
# E. coli [6] = settings: for FICC (fractional inhibitory concentration of the test compound): MICCcheckerboard/MICC; for Outcome: checkerboard with mupirocin; for FICM (MICMcheckerboard/MICM): mupirocin alone 64 µg/mL; for FICI (fractional inhibitory concentration index): with mupirocin, FICC+FICM
# B. subtilis DSM402 [7] = experiment: Bacterial cytological profiling (BCP) in B. subtilis DSM402; type: cell-based, Bacillus subtilis; settings: for DAPI / phase contrast / FM4-64: 1x MIC, 1 h; for DAPI: DNA condensation; for phase contrast: indicates cell lysis; for FM4-64: membrane stain; for gyrase inhibition / membrane damage: interpretation of BCP in B. subtilis
# B. subtilis DSM402 [8] = settings: for μM (concentration used, 1x MIC): Table 2, cells treated with 1x MIC
# B. subtilis DSM402 [9] = experiment: Peptidoglycan integrity assay (acetic acid/methanol fixation); settings: 1x MIC; 30 min (cell wall inhibitors) or 60 min
# [10] = test system: MurG in B. subtilis TNVS175; experiment: MurG localization; type: cell-based, Bacillus subtilis; settings: for protein localization MurG: 1x MIC, 30 min (vancomycin) or 1 h
# MreB in B. subtilis MW10 = experiment: MreB mobility assay; type: cell-based, Bacillus subtilis; settings: B. subtilis MW10, 1 h of antibiotic exposure
# Description: MreB is an actin homologue that forms filamentous structures along the lateral axis of the cell. It moves along the length of the cells in a spiraling pattern thereby driving lateral peptidoglycan synthesis.[36],[37] MreB mobility is sensitive to inhibition of peptidoglycan synthesis and so far, every cell wall synthesis inhibitor we tested abolished MreB movement (see Figure S70 for examples).
# Expression of msfGFP-MreB was induced with 0.3% xylose. Pictures were taken after 1 h of antibiotic exposure. Two images of the same field of view were recorded 30 s apart and overlaid in ImageJ to visualize MreB mobility. A perfect overlap (yellow) indicates stalled MreB movement, while distinct red and green foci are indicative of MreB mobility. Scale bar 2 μm.
# Fig. S70: MreB motility in B. subtilis MW10 after treatment with different cell wall synthesis inhibitors. Expression of GFP-MreB was induced with 0.3% xylose. Cells were treated with 1x […]
# Two images of the same field of view were recorded 30 sec apart and overlaid in ImageJ to visualize MreB mobility. A perfect overlap (yellow) indicates stalled MreB movement while distinct red and green spots are indicative of MreB mobility. Scale bar 2 µm.
# [11] = test system: MraY in B. subtilis TNVS284; experiment: MraY localization; settings: 1x MIC, 30 min (vancomycin) or 1 h
# [12] = test system: PbpB in B. subtilis EKB46; experiment: PbpB localization; settings: 1x MIC, 30 min (vancomycin) or 1 h
# [13] = test system: PonA in B. subtilis TNVS45; experiment: PonA localization; settings: 1x MIC, 30 min (vancomycin) or 1 h
# E. coli W3110 = experiment: Bacterial cytological profiling (BCP) in E. coli W3110; type: cell-based, Escherichia coli; settings: for DAPI / phase contrast / FM4-64: 1x MIC, 1 h; for DAPI: DNA condensation; for phase contrast: indicates cell lysis; for FM4-64: membrane stain; for gyrase inhibition / membrane damage: interpretation of BCP in E. coli
# [14] = test system: cell wall biosynthesis in B. subtilis DSM402; experiment: Summary of cell wall synthesis experiments; type: cell-based, Bacillus subtilis
# E. coli BCB472 = experiment: GlpT localization (inner membrane) in E. coli BCB472; settings: 1x MIC, 1 h; GFP-tagged membrane protein
# B. subtilis DSM402 [15] = experiment: microbe, parasite or virus in culture; settings: Bacillus subtilis, DSM402, read-out: concentration (MIC against B. subtilis DSM402)
# in vitro = settings: human
# E. coli DNA gyrase = molecular target: T1, E. coli DNA gyrase (Escherichia coli, UniProt P0AES4+P0AES6); experiment: In vitro DNA gyrase cleavage assay; type: biochemical
# T1 construct: purchased Inspiralis
# [16] = Enterococcus faecalis, ATCC19433
# [17] = Escherichia coli, Gram-negative strain, average of duplicate experiments, read-out: MIC E. coli (W3110)
# [18] = Klebsiella pneumoniae, ATCC10031
# T1 sequence (P0AES4 whole entry, one chain of several): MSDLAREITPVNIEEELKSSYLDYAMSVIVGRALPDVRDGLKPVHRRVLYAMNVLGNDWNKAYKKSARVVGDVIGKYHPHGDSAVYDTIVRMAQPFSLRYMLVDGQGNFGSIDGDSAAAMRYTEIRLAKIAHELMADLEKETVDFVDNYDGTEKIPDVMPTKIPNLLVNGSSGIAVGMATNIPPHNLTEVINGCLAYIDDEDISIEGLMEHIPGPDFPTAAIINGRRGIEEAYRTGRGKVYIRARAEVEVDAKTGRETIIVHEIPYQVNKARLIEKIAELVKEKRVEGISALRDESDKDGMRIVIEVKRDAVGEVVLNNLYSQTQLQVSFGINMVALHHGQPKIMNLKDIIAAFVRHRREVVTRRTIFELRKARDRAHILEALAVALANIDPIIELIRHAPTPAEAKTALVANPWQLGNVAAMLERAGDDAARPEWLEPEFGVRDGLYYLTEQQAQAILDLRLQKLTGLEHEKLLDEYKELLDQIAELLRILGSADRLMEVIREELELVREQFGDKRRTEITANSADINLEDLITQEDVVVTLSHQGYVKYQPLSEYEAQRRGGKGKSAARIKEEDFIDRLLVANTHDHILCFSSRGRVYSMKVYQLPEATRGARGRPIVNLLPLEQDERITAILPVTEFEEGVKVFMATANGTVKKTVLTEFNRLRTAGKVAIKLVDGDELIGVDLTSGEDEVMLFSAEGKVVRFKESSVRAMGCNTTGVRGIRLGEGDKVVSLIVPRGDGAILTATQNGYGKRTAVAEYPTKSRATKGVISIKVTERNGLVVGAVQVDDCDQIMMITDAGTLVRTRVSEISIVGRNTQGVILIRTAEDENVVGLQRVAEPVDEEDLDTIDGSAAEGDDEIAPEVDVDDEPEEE
Structure (SMILES),"MIC (P. aeruginosa (PAO1); Pseudomonas aeruginosa, PAO1) [µM]",MIC [1] [µM],MIC (E. faecalis (ATCC 19433); [16]) [µM],MIC (E. coli (W3110); [17]) [µM],MIC ([2]; Staphylococcus aureus) [µM],MIC (S. aureus (CCUG1800T); Staphylococcus aureus) [µM],"MIC [4, 18] [µM]",MIC (E. coli [5]) [µg/mL],Outcome (E. coli [6]),FICM (MICMcheckerboard/MICM) (E. coli [6]),DAPI (B. subtilis DSM402 [7]),phase contrast (B. subtilis DSM402 [7]),FM4-64 (B. subtilis DSM402 [7]),gyrase inhibition (B. subtilis DSM402 [7]),PG integrity (B. subtilis DSM402 [9]),MreB mobility (MreB in B. subtilis MW10),protein localization MraY [11],protein localization PbpB [12],protein localization PonA [13],CWB inhibited? [14],further results
CCn1cc(C(=O)O)c(=O)c2cc(F)c(N3CCN(C(=O)CN4CCCCC4)CC3)cc21 [7a],> 1150,72,4.49,36,576,8.99,144,16,additive (>0.5 to ≤4.0 as additive (no interaction)),0.75,–,–,–,–,–,–,–,–,–,–,MIC ([3]; Escherichia coli): > 1150 µM; FICC (fractional inhibitory concentration of the test compound) (E. coli [6]): 0.252; FICI (fractional inhibitory concentration index) (E. coli [6]): 1.002
CCn1cc(C(=O)O)c(=O)c2cc(F)c(N3CCN(C(=O)CN4CCOCC4)CC3)cc21 [7b],860,1.67,8.95,71.7,287,4.47,> 1150,32,additive (>0.5 to ≤4.0 as additive (no interaction)),0.0313,–,–,–,–,–,–,–,–,–,–,MIC ([3]; Escherichia coli): 143 µM; FICC (fractional inhibitory concentration of the test compound) (E. coli [6]): 0.5; FICI (fractional inhibitory concentration index) (E. coli [6]): 0.5313
CCn1cc(C(=O)O)c(=O)c2cc(F)c(N3CCN(CN4C(=O)C(=O)c5cc(F)ccc54)CC3)cc21 [20a],–,–,–,–,–,–,–,–,–,–,condensed,dark,patchy,yes,came close to the cutoff value; also recorded: intact,much smaller clusters and more clusters per cell; also recorded: mobile with static foci,neither compound affected the localization; also recorded: rough,neither compound affected the localization; also recorded: smooth,neither compound affected the localization; also recorded: septal,yes ^b,"MIC (P. aeruginosa (PAO1)): 17.12 µM; MIC M. tuberculosis (MC26020) [1]: 64.45 µM; MIC (E. faecalis (ATCC 19433)): 3.02 µM; MIC (E. coli (W3110); Gram-negative strain, average of duplicate experiments, read-out: MIC E. coli (W3110)): 3.02 µM; concentration (MIC against E. coli W3110) (E. coli (W3110); Tab. S11, concentrations represent MIC values): 3.02 µM; membrane damage (B. subtilis DSM402 [7]): yes; concentration (MIC against B. subtilis DSM402) (B. subtilis DSM402 [8]; Tab. S13, concentrations represent MIC values): 16.11 µM; μM (concentration used, 1x MIC) (B. subtilis DSM402 [8]): 16.11 µM; protein localization MurG [10]: distinct MurG clusters all over the cells; also recorded: patchy; MIC [2]: >1031.3 µM; MIC ([3]; norfloxacin-resistant clinical isolate): 16.11 µM; MIC (S. aureus (CCUG1800T)): 8.05 µM; MIC [4]: 8.05 µM; DAPI (E. coli W3110): condensed; phase contrast (E. coli W3110): dark; FM4-64 (E. coli W3110): smooth; gyrase inhibition (E. coli W3110): yes; membrane damage (E. coli W3110): no; GlpT (E. coli BCB472): smooth"
"O=C(O)c1cn(C2CC2)c2cc(N3CCNCC3)c(F)cc2c1=O [Cip, ciprofloxacin, reference compound]",–,2.26,6.03,–,96.6,3.01,7.54,–,–,–,condensed,dark,few patches,yes,intact,mobile,rough,smooth,septal,no,membrane damage (B. subtilis DSM402 [7]): possibly; MIC (B. subtilis DSM402 [15]): 3.01 µM; MreB mobility (MreB in B. subtilis MW10; listed as ciprofloxacin): did not affect either MreB mobility or localization; DAPI (E. coli W3110): condensed; phase contrast (E. coli W3110): dark; FM4-64 (E. coli W3110): smooth; gyrase inhibition (E. coli W3110): yes; membrane damage (E. coli W3110): no; GlpT (E. coli BCB472): smooth
"CCn1cc(C(=O)O)c(=O)c2cc(F)c(N3CCNCC3)cc21 [Nor, norfloxacin, reference compound]",6.26,1.56,4.69,0.39,100,3.13,9.39,0.125,additive (>0.5 to ≤4.0 as additive (no interaction)),0.5,condensed,dark,few patches,yes,intact,mobile with static foci,rough,smooth,septal/patchy,no,"IC50 at 24 h (in vitro): 48.2 ± 3.92 µM; MIC (E. coli (W3110); Escherichia coli, read-out: concentration (MIC against E. coli W3110)): 0.37 µM; membrane damage (B. subtilis DSM402 [7]): possibly; MIC (B. subtilis DSM402 [15]): 18.1 µM; μM (concentration used, 1x MIC) (B. subtilis DSM402 [8]): 18.11 µM; protein localization MurG [10]: smooth/spotty; protein localization MurG ([10]; listed as norfloxacin): mostly smooth phenotype; larger MurG clusters ([10]; quantification of microscopy images): up to 30%; MIC ([3]; Escherichia coli, norfloxacin-resistant clinical isolate): 50.1 µM; MreB mobility (MreB in B. subtilis MW10; listed as norfloxacin): the same effect was observed; protein localization MraY ([11]; listed as norfloxacin): no effect on the other two proteins; protein localization PbpB ([12]; listed as norfloxacin): no effect on the other two proteins; protein localization PonA ([13]; listed as norfloxacin): accumulation in distinct foci at the cell membrane; DAPI (E. coli W3110): condensed; phase contrast (E. coli W3110): dark; FM4-64 (E. coli W3110): smooth; gyrase inhibition (E. coli W3110): yes; membrane damage (E. coli W3110): no; inhibition at 10 µM (E. coli DNA gyrase): 73.6%; GlpT (E. coli BCB472): smooth"
"CN[C@H](CC(C)C)C(=O)N[C@H]1C(=O)N[C@@H](CC(N)=O)C(=O)N[C@H]2C(=O)N[C@H]3C(=O)N[C@H](C(=O)N[C@H](C(=O)O)c4cc(O)cc(O)c4-c4cc3ccc4O)[C@H](O)c3ccc(c(Cl)c3)Oc3cc2cc(c3O[C@@H]2O[C@H](CO)[C@@H](O)[C@H](O)[C@H]2O[C@H]2C[C@](C)(N)[C@H](O)[C@H](C)O2)Oc2ccc(cc2Cl)[C@H]1O [Van, vancomycin, reference compound]",–,–,–,–,–,–,–,–,–,–,–,–,–,–,compromised,static with foci,rough,smooth,septal,yes,"μM (concentration used, 1x MIC) (B. subtilis DSM402 [8]): 0.68 µM; protein localization MurG [10]: patchy/dispersed"
